# Assay results as given in publication PMC11582173, “Synthesis, cytotoxicity, anti-inflammatory, anti-metastatic and anti-oxidant activities of novel chalcones incorporating 2-phenoxy-N-arylacetamide and thiophene moieties: induction of apoptosis in MCF7 and HEP2 cells” (Naunyn-Schmiedeberg's Archives of Pharmacology, 2024).
# What was measured:
# Survivin gene = test: Real-time PCR, Survivin gene expression; format: cell-based, human; conditions: relative to untreated control (1)
# Experimental: (§1) The expression level of the following six genes (Ki-67, Survivin, Interleukin-1 beta (IL-1B), Interleukin-6 (IL-6), Cyclooxygenase-2 (COX-2) and protein kinase B (AKT1)) was determined in MCF7 and HEP2 treated with the IC50 of compound 5c. The untreated cells were used as a negative control for comparison purposes. […] Ki-67 is a popular proliferation marker for human tumor cells. […] Survivin is an inhibitor of apoptotic protein (IAP) family member, which is essential for cell division. The lowering of the expression of survivin inhibited tumor development, triggered apoptosis, and made tumor cells more susceptible to radiation and chemotherapy (Albadari and Li [2023]). […] IL-1B is a pleiotropic mediator of inflammation, which is produced in response to a variety of stressors (Aarreberg et al. [2019]). […] IL-6 is a pro-inflammatory cytokine that plays a significant role in the proliferation and differentiation of human cells. It promotes the production of numerous proteins involved in acute inflammation (Uciechowski and Dempke [2020]). […]
# (§2) The expression level of the following six genes (Ki-67, survivin, AKT1, IL-6, COX2, and IL-1B) was examined using real-time polymerase chain reaction (qPCR) (Mohamed et al. [2023a]). […] The cycle threshold (Ct) was determined automatically. […]
# COX-2 gene = test: Real-time PCR, COX-2 gene expression; format: cell-based, human; conditions: relative to untreated control (1)
# Experimental: as §1, §2
# [1] = HEP2 cells treated with IC50 of 5c
# [2] = MCF7 cells treated with IC50 of 5c
smiles,measurement,setting,value
"COc1ccc(NC(=O)COc2ccc(C=CC(=O)c3cccs3)cc2)cc1 [Compound 5c, N-(4-Methoxyphenyl)-2-(4-(3-oxo-3-(thiophen-2-yl)prop-1-en-1-yl)phenoxy)acetamide]",Survivin expression folding,Survivin gene; [1],0.489±0.07 fold
same,Survivin expression folding,Survivin gene; [2],0.632±0.0618 fold
same,COX2 expression folding,COX-2 gene; [1],0.547±0.0321 fold
same,COX2 expression folding,COX-2 gene; [2],0.502±0.073 fold
